Laboratory results from the NIST ThermoML archive (doi:10.1021/acs.jced.5b00820).

Assay: refractive index (Na D-line) (dimensionless); xn = mol fraction of the nth substance listed
Details: 102.2 kPa, Liquid, Standard Abbe refractometry

C[Si](C)(O[Si](C)(C)c1ccccc1)c1ccccc1 [1,3-diphenyltetramethyldisiloxane] + C[Si]1(C)O[Si](C)(C)O[Si](C)(C)O[Si](C)(C)O1
refractive index
Details	308.15 K	313.15 K	318.15 K	323.15 K	328.15 K
x1 = 0.05	1.3951	1.39261	1.3901	1.38762	1.38512
x1 = 0.0999	1.40098	1.39849	1.39602	1.39357	1.39102
x1 = 0.1503	1.40694	1.40447	1.40199	1.39957	1.39707
x1 = 0.2005	1.41292	1.41044	1.40799	1.40557	1.40311
x1 = 0.2507	1.41891	1.41644	1.41401	1.41159	1.40913
x1 = 0.2963	1.42436	1.42193	1.41951	1.41708	1.41464
x1 = 0.3509	1.43091	1.42847	1.42607	1.42366	1.42126
x1 = 0.4001	1.43683	1.4344	1.43201	1.42964	1.42721
x1 = 0.4471	1.44251	1.44009	1.4377	1.4353	1.4329
x1 = 0.4968	1.44855	1.44616	1.44376	1.44142	1.43901
x1 = 0.5512	1.45518	1.45281	1.45043	1.44806	1.44571
x1 = 0.6003	1.46117	1.45878	1.45644	1.45407	1.45173
x1 = 0.6502	1.46727	1.46493	1.46256	1.46023	1.45785
x1 = 0.7001	1.47342	1.47107	1.46872	1.46638	1.46407
x1 = 0.7497	1.47954	1.47718	1.47488	1.47255	1.47021
x1 = 0.8	1.48577	1.48342	1.48109	1.47882	1.47646
x1 = 0.85	1.49197	1.48966	1.48733	1.48504	1.48273
x1 = 0.896	1.49768	1.49532	1.49303	1.49072	1.48841
x1 = 0.9497	1.50436	1.50202	1.49976	1.49748	1.49518
x1 = 1	1.51064	1.50832	1.50605	1.50377	1.50144

C[Si](C)(O[Si](C)(C)c1ccccc1)c1ccccc1 [1,3-diphenyltetramethyldisiloxane] + C[Si]1(CCC(F)(F)F)O[Si](C)(CCC(F)(F)F)O[Si](C)(CCC(F)(F)F)O1
refractive index
Details	308.15 K	313.15 K	318.15 K	323.15 K	328.15 K
x1 = 0.0501	1.36577	1.36376	1.36177	1.35973	1.3577
x1 = 0.1001	1.37152	1.36949	1.36745	1.36544	1.36339
x1 = 0.1499	1.37745	1.37541	1.37337	1.37133	1.36931
x1 = 0.2005	1.38359	1.38155	1.3795	1.37746	1.37541
x1 = 0.2497	1.38975	1.38769	1.38565	1.38355	1.38148
x1 = 0.3	1.39624	1.39416	1.39207	1.39	1.38792
x1 = 0.3431	1.40191	1.39984	1.39775	1.39565	1.3936
x1 = 0.4001	1.40958	1.40754	1.40546	1.40337	1.40125
x1 = 0.45	1.41665	1.41456	1.41246	1.41033	1.40824
x1 = 0.4998	1.42386	1.42173	1.41969	1.4175	1.41538
x1 = 0.5482	1.43101	1.42892	1.42678	1.42465	1.42246
x1 = 0.5996	1.43889	1.43676	1.43456	1.43246	1.43032
x1 = 0.6501	1.44686	1.44469	1.44253	1.44035	1.43816
x1 = 0.7	1.45499	1.45282	1.45064	1.44846	1.44627
x1 = 0.75	1.4634	1.4612	1.459	1.45683	1.4546
x1 = 0.8001	1.4721	1.46989	1.46772	1.4655	1.46326
x1 = 0.8499	1.48104	1.47886	1.47659	1.47441	1.47215
x1 = 0.8998	1.49033	1.48806	1.48584	1.48362	1.48135
x1 = 0.95	1.5001	1.49782	1.49555	1.49332	1.49106
x1 = 1	1.51009	1.50782	1.50561	1.50332	1.501
